Where “and” joins values, the source holds several entries; their conditions need not be identical. Equal values may be shown once.
What was measured:
[1] = system: relapsed and/or refractory CD19+ B-ALL; format: in vivo, human
[2] = system: relapsed and/or refractory CD19+ NHL; details: human, in vivo

Nc1nc(F)nc2c1ncn2[C@@H]1O[C@H](CO)[C@@H](O)[C@@H]1O [Fludarabine, fludarabine]
Odds Ratio (95% CI) for MRD-negative CR ([1]; univariate, fludarabine added to cyclophosphamide-based lymphodepletion (Y)): 0.50 (0.03-3.31)

cyclophosphamide and fludarabine [Cy/Flu]
Estimate, univariate association with Disease-Free Survival ([1]; human, in vivo): 0.2967
Estimate, univariate association with Overall Survival ([1]; human, in vivo): 0.4349
Exp (Coef) = hazard ratio for DFS ([1]; human, in vivo): 0.2490
Exp (−Coef) for DFS ([1]; human, in vivo): 4.0154
Hazard Ratio (95% CI) for DFS ([1]; human, in vivo): 0.2777 (0.1095-0.7042) and 0.2794 (0.1109-0.7042)
HR (95% CI) for PFS [2]: 1.92 (0.99-3.72)
HR for PFS [2]: 4.266
